According to patent US9676780B2, “Piperazine-substituted [1,2,4]triazolo[1,5-C]quinazolin-5-amine compounds with A2A antagonist properties” (MERCK SHARP & DOHME CORP., priority 2012, dated 2017):

target: T1, human A2a receptor (Homo sapiens, UniProt P29274); assay: A2a receptor competition binding assay (Scintillation Proximity, tritiated radioligand); details: A2a EC50, membranes from HEK293 cells expressing the human A2a receptor; 0.5 nM tritiated ligand; SPA beads; one hour at room temperature
T1 construct: purchased Perkin-Elmer RBHA2AM400UA; host or cells: HEK293
T1 sequence (P29274 whole entry): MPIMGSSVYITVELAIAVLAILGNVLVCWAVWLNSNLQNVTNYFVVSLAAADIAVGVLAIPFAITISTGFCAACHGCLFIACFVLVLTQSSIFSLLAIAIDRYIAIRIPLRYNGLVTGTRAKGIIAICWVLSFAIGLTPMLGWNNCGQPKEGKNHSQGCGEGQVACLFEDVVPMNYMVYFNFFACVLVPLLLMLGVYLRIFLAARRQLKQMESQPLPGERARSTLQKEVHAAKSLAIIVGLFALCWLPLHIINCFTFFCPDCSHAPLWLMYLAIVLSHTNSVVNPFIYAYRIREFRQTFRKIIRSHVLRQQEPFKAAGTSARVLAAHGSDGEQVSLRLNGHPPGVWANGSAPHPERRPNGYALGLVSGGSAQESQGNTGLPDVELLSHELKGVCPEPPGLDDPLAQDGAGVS
Method: Binding affinities of compounds of the invention for the human A2a receptor were determined in a competition binding assay using Scintillation Proximity technology. […] The beads were then allowed to settle to the bottom of the wells for 1 hr, after which the membrane-associated radioactivity was determined by scintillation counting in a TopCount microplate reader. Ki values were determined using the Cheng-Prusoff equation.
• HEK293 cells expressing the human, rat, dog or monkey adenosine 2a receptor (Purchased from Perkin-Elmer # RBHA2AM400UA). • The Tritiated compound was prepared in-house by MRL Radiochemistry according to published methods. • Wheatgerm agglutinin-coated yttrium silicate SPA beads (GE Healthcare #RPNQ0023). […] This is a 2.5× solution. The final concentration in the assay is 0.5 nM. Calculate the concentration by counting two 5 ul aliquots. Membrane Preparation • Use 0.25 ug of membrane/well. Dilute membranes to 9.7 ug/ml in assay buffer. Treat with 20 ug/ml adenosine deaminase (ADA) for 15 minutes at room temperature to degrade endogenous adenosine. Membrane-Bead Mixture • Use 100 ug/well wheatgerm agglutinin-coated yttrium silicate SPA beads. • Mix ADA-treated membranes and SPA beads together for 30 min prior to assay. […] Incubate for one hour at room temperature with agitation. • Include total binding (assay buffer+1% DMSO) and non-specific binding (CGS15943, 1 uM) wells. Counting • Allow the beads to settle for one hour. • Count in TopCount. Calculations • A curve fitting program (i.e., Prism, Activity Base, Chemcart) is used to determine the EC50.
The Ki value is calculated using the Cheng-Prusoff equation. Ki=EC50/(1+(radioligand concentration/Kd))

SMILES | EC50
COc1cccc2c1nc(N)n1nc(CN3C4CCC3C3CCC4N3C(=O)c3ccc(C(F)(F)F)cc3)nc21 [Ex-203] | 8.5 nM
COc1cccc2c1nc(N)n1nc(CN3C4CCC3C3CCC4N3C(=O)c3ccc(F)cc3)nc21 [Ex-204] | 11.5 nM
COc1cccc2c1nc(N)n1nc(CN3C4CCC3C3CCC4N3c3ccc(C(F)(F)F)cn3)nc21 [Ex-205] | 4.1 nM
COc1cc(F)cc2c1nc(N)n1nc(CN3C4CCC3CN(Cc3ccccc3)C4)nc21 [Ex-206] | 30.9 nM
COc1cccc2c1nc(N)n1nc(CN3C4CCC3C3CCC4N3)nc21 [Ex-208] | 143 nM

same assay, conditions: membranes from HEK293 cells expressing the human A2a receptor; 0.5 nM tritiated ligand; SPA beads; one hour at room temperature; read-out: A2a EC50

SMILES | EC50
COc1cccc2c1nc(N)n1nc(CN3CCN(CCF)CC34CC4)nc21 [Ex-192] | 153 nM
COCCN1CCN(Cc2nc3c4cccc(OC)c4nc(N)n3n2)C2(CC2)C1 [Ex-193] | 128 nM
COc1cccc2c1nc(N)n1nc(CN3CCN(CCC(F)(F)F)CC34CC4)nc21 [Ex-196] | 95.7 nM
COc1cccc2c1nc(N)n1nc(CN3[C@H](C)CN(C(=O)c4ccc(F)cc4)C[C@@H]3C)nc21 [Ex-201] | 50.2 nM
COc1cc(F)cc2c1nc(N)n1nc(CN3CC4CCC(C3)N4Cc3ccccc3)nc21 [Ex-207] | 145 nM

Further lines, results first:

EC50 | SMILES
41.6 nM | COc1cccc2c1nc(N)n1nc(CN3CCN(c4ccc(F)cc4)C4(CC4)C3)nc21 [Ex-195]
29.1 nM | COc1cccc2c1nc(N)n1nc(CN3CCN(C(=O)c4ccc(F)cc4)CC3(C)C)nc21 [Ex-202]
24.8 nM | COc1cccc2c1nc(N)n1nc(CN3CCN(S(=O)(=O)C4CC4)CC34CC4)nc21 [Ex-194]
15.6 nM | COc1cccc2c1nc(N)n1nc(CN3CCN(C(=O)c4ccc(C(F)(F)F)cc4)CC3(C)C)nc21 [Ex-200]
12.6 nM | CCOC(=O)N1CCN(Cc2nc3c4cccc(OC)c4nc(N)n3n2)C2(CC2)C1 [Ex-188]
10.8 nM | COc1cccc2c1nc(N)n1nc(CN3CCN(c4ccc(C(F)(F)F)cn4)CC3(C)C)nc21 [Ex-199]
9.9 nM | COc1cc(F)cc2c1nc(N)n1nc(CN3CCN(Cc4ccc(F)cc4)C(=O)C3)nc21 [Ex-211]
9.4 nM | COc1ccc(CN2CCN(Cc3nc4c5cccc(OC)c5nc(N)n4n3)CC2=O)cc1 [Ex-209]
8.2 nM | COc1cccc2c1nc(N)n1nc(CN3CCN(c4ccc(F)cc4)CC34CC4)nc21 [Ex-191]
7.7 nM | COc1cccc2c1nc(N)n1nc(CN3CCN(Cc4ccc(C)cc4)C(=O)C3)nc21 [Ex-210]
6.7 nM | COCCOc1cccc(N2CCN(Cc3nc4c5cccc(OC)c5nc(N)n4n3)C3(CC3)C2)c1 [Ex-190]
5.8 nM | COc1ccccc1N1CCN(Cc2nc3c4cccc(OC)c4nc(N)n3n2)CC1(C)C [Ex-187]
3.1 nM | COCCOc1ccc(N2CCN(Cc3nc4c5cccc(OC)c5nc(N)n4n3)C3(CC3)C2)cc1 [Ex-189]
